Here are results for 14 molecules from patent publication US12590062B2, “PD-1/PD-L1 inhibitors” (Gilead Sciences, Inc., priority 2017, dated 2026).

What is called AC50 is the concentration giving half of the maximal activity seen. Broadly, the IC50 is the concentration at which inhibition is half-maximal. Broadly, the EC50 is the concentration that produces a half-maximal response.

The target of assay [1] is T1, PD-L1 (Homo sapiens, UniProt Q9NZQ7).
T1 construct: determine if they can specifically dimerize the extracellular domains of PD-L1
T1 sequence (Q9NZQ7 19-238 limits assumed): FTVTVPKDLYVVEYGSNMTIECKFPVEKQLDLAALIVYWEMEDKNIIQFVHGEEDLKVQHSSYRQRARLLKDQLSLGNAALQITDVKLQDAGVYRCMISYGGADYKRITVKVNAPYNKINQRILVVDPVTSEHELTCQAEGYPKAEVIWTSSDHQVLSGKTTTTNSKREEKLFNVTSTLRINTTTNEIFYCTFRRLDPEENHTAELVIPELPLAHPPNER
T1 sequence (Q9NZQ7 19-238 limits assumed): as above
Description: PD-L1/PD-L1 dimerization biochemical protein-protein interaction assay (ALPHA). Format: binding. Conditions: compound-induced PD-L1 dimerization, head prints '1 nM' (0.5 nM His-tagged PD-L1 and 0.5 nM FLAG-tagged PD-L1), read-out: AC50 PDL1 Dimer Alpha 1 nM. On the procedure:
PD-L1/PD-L1 Dimerization Biochemical Protein-Protein Interaction Assay:
Compounds were tested in biochemical protein-protein interaction assays to determine if they can specifically dimerize the extracellular domains of PD-L1. Dimerization of the proteins (His-tagged PD-L1 and FLAG-tagged PD-L1) is measured using a bead based Amplified Luminescent Proximity Homogeneous Assay (ALPHA) platform. […] Assays are performed in 25 mM Hepes (pH 7.4), 150 mM NaCl, 3.4 mM EDTA, 0.005% Tween 20, and 0.01% BSA. Final protein concentration in the assays were 0.5 nM (His tagged PD-L) and 0.5 nM (FLAG tagged PD-L1). After an assay reaction time of 2 hours at 25° C., 20 μg/mL (final assay concentration) ALPHA assay acceptor beads (anti-His coated) were added and incubated for 60 minutes at 25° C. Binding was measured following a final 60 minute incubation with 40 μg/mL (final assay concentration) ALPHA assay donor beads (anti-FLAG coated). AC50 values were calculated from the fit of the dose-response curves to a four-parameter equation (Table 3).

Assay [2] has as its target PD-1/PD-L1 (Homo sapiens, UniProt Q9NZQ7). Description: PD-1/PD-L1 biochemical protein-protein interaction assay (ALPHA). Conditions: 0.3 nM His tagged PD-L1, 2.5 nM biotinylated Fc-PD-1, 60 minutes at 25° C., read-out: IC50 PD-L1-PD-1 Alpha IC50-mono PD-L1-fcP-D1. Format: binding. Summed up:
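Compounds are tested for blocking the PD-1/PD-L1 extracellular-domain interaction using an ALPHA bead assay, in which inhibition lowers the luminescent signal. Reactions run 60 min at 25° C with 0.3 nM His-PD-L1 and 2.5 nM biotinylated Fc-PD-1. IC50 values come from four-parameter fits.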

Assay [3] has as its target T2, PD-1/PD-L1 interaction (Homo sapiens, UniProt Q9NZQ7).
T2 construct: expressed in transfected cells; host or cells: CHO cells (aAPC-PD-L1) co-cultured with Jurkat cells overexpressing PD-1 and an NFAT-luciferase reporter
Kind of assay: PD-1/PD-L1 NFAT reporter co-culture assay. The assay is classed as cell-based. Conditions: Jurkat PD-1 NFAT-luciferase cells co-cultured with aAPC-PD-L1 CHO cells, 6 hrs at 37° C.; read-out: EC50 NFAT Luciferase. Summed up: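 Luminescence (ONE-Glo) after 6 h, 37 °C co-culture reports NFAT-luciferase in PD-1 Jurkat cells, which PD-1/PD-L1 engagement suppresses. Partner cells: CHO expressing anti-CD3 and PD-L1. EC50 from four-parameter dose-response fit.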

PD-1/PD-L1, sequence (Q9NZQ7 19-238 limits assumed): as above
T2 sequence (Q9NZQ7 19-290): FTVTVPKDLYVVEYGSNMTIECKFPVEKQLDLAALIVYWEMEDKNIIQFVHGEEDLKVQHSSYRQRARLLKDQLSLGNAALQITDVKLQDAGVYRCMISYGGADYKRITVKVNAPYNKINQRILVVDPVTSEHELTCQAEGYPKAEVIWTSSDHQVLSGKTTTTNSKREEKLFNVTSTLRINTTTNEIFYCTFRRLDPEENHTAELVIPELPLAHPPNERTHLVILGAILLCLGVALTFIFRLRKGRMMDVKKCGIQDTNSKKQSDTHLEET

Consider `Cc1c(COc2cc(OCc3cncc(C#N)c3)c(CN[C@@](C)(CO)C(=O)O)cc2Cl)cccc1-c1cccc(-c2ccc(CC3CCCN3)cc2)c1C` (stereo partly drawn) [Example 292, (2S)-2-((5-chloro-2-((5-cyanopyridin-3-yl)methoxy)-4-((2,2′-dimethyl-4″-(pyrrolidin-2-ylmethyl)-[1,1′:3′,1″-terphenyl]-3-yl)methoxy)benzyl)amino)-3-hydroxy-2-methylpropanoic acid], for which the AC50 in assay [1] was 230 nM. For the same molecule, in assay [2], the IC50 amounted to 0.509 nM. In addition, the EC50 in assay [3] stood at 615 nM.
The like results for `Cc1c(COc2cc(OCc3cncc(C#N)c3)c(CNC[C@@H](O)CC(=O)O)cc2Cl)cccc1-c1cccc(-c2ccc3c(CNC[C@@H](O)CC(=O)O)cccc3c2)c1C` [Example 293, (S)-4-(((6-(3′-((4-((((S)-3-carboxy-2-hydroxypropyl)amino)methyl)-2-chloro-5-((5-cyanopyridin-3-yl)methoxy)phenoxy)methyl)-2,2′-dimethyl-[1,1′-biphenyl]-3-yl)naphthalen-1-yl)methyl)amino)-3-hydroxybutanoic acid] were, in that order, 125 nM, 0.226 nM and 73 nM.
As to `Cc1c(COc2cc(O)c(CNCCCP(=O)(O)O)cc2Cl)cccc1-c1cccc(COc2cc(OCc3cncc(C#N)c3)c(CNCCCP(=O)(O)O)cc2Cl)c1C` [Example 294, (3-((5-chloro-4-((3′-((2-chloro-5-((5-cyanopyridin-3-yl)methoxy)-4-(((3-phosphonopropyl)amino)methyl)phenoxy)methyl)-2,2′-dimethyl-[1,1′-biphenyl]-3-y)methoxy)-2-hydroxybenzyl)amino)propyl)phosphonic acid], in assay [1], the AC50 stood at 547 nM. In assay [2], the IC50 turned out to be 9.24 nM. In addition, the EC50 in assay [3] amounted to 714 nM.
For `C[C@@](CO)(NCc1cc(Cl)c(O[C@H]2CCc3c(-c4cccc5c4CC[C@@H]5Oc4nc(OCc5cncc(C#N)c5)c(CNCCO)cc4Cl)cccc32)nc1OCc1cncc(C#N)c1)C(=O)O` [Example 295] the same measures were 67.6 nM, 0.312 nM and 279 nM.
On to `Cc1c(COc2cc(OCc3cncc(C#N)c3)c(CN[C@@](C)(CO)C(=O)O)cc2Cl)cccc1-c1cccc(-c2cnc3c(Cl)cc(CN[C@@](C)(CO)C(=O)O)cc3c2)c1C` [Example 296, (S)-2-(((3-(3′-((4-((((S)-2-carboxy-1-hydroxypropan-2-yl)amino)methyl)-2-chloro-5-((5-cyanopyridin-3-yl)methoxy)phenoxy)methyl)-2,2′-dimethyl-[1,1′-biphenyl]-3-yl)-8-chloroquinolin-6-yl)methyl)amino)-3-hydroxy-2-methylpropanoic acid], for which the concentration at half-maximal activity (AC50) in assay [1] is 108 nM. Also, the IC50 in assay [2] was determined as 0.064 nM. Further, the EC50 in assay [3] came out at 844 nM.
For the molecule `Cc1c(COc2cc(OCc3cncc(C#N)c3)c(CNC[C@@H](O)CC(=O)O)cc2Cl)cccc1-c1cccc(-c2cnc3c(Cl)cc(CNC[C@@H](O)CC(=O)O)cc3c2)c1C` [Example 297, (S)-4-(((3-(3′-((4-((((S)-3-carboxy-2-hydroxypropyl)amino)methyl)-2-chloro-5-((5-cyanopyridin-3-yl)methoxy)phenoxy)methyl)-2,2′-dimethyl-[1,1′-biphenyl]-3-yl)-8-chloroquinolin-6-yl)methyl)amino)-3-hydroxybutanoic acid], in assay [1], the AC50 came out at 187 nM. In addition, in assay [2], the IC50 was 0.187 nM. For the same molecule, the EC50 in assay [3] is 266 nM.
With `Cc1c(COc2cc(OCc3cncc(C#N)c3)c(CN[C@@](C)(CO)C(=O)O)cc2Cl)cccc1-c1cccc(-c2ccc3[nH]c([C@@H]4CCCN4)nc3c2)c1C` [Example 299, (S)-2-((5-chloro-2-((5-cyanopyridin-3-yl)methoxy)-4-((2,2′-dimethyl-3′-(2-((S)-pyrrolidin-2-yl)-1H-benzo[d]imidazol-5-yl)-[1,1′-biphenyl]-3-yl)methoxy)benzyl)amino)-3-hydroxy-2-methylpropanoic acid], the AC50 in assay [1] is 162 nM. In assay [2], the IC50 is 0.761 nM. Besides, the EC50 in assay [3] was found to be 326 nM.
For the molecule `Cc1c(COc2cc(OCc3cncc(C#N)c3)c(CNC[C@@H](O)CC(=O)O)cc2Cl)cccc1-c1cccc(-c2ccc(CCN3CCCC3)cc2)c1C` [Example 300, (S)-4-((5-chloro-2-((5-cyanopyridin-3-yl)methoxy)-4-((2,2′-dimethyl-4″-(2-(pyrrolidin-1-yl)ethyl)-[1,1′:3′,1″-terphenyl]-3-yl)methoxy)benzyl)amino)-3-hydroxybutanoic acid], in assay [1], the AC50 amounted to 223 nM. For the same molecule, the IC50 in assay [2] turned out to be 0.673 nM. Moreover, the EC50 in assay [3] turned out to be 3720 nM.
In the case of `Cc1c(COc2cc(OCc3cncc(C#N)c3)c(CN[C@@](C)(CO)C(=O)O)cc2Cl)cccc1-c1c(F)ccc(-c2ccc(CN(C)C)cc2)c1Cl` [Example 301, (2S)-2-((5-chloro-4-((2′-chloro-4″-((dimethylamino)methyl)-6′-fluoro-2-methyl-[1,1′:3′,1″-terphenyl]-3-yl)methoxy)-2-((5-cyanopyridin-3-yl)methoxy)benzyl)amino)-3-hydroxy-2-methylpropanoic acid], the AC50 in assay [1] was found to be 95.9 nM. Further, the IC50 in assay [2] is 0.109 nM. Also, in assay [3], the EC50 came out at 1020 nM.
Turning to `Cc1c(COc2cc(OCc3cncc(C#N)c3)c(CN[C@](C)(CO)C(=O)O)cc2Cl)cccc1-c1cccc(-c2ccc(OC3CN4CCC3CC4)cc2)c1C` (stereo partly drawn) [Example 302, (2R)-2-((5-chloro-2-((5-cyanopyridin-3-yl)methoxy)-4-((2,2′-dimethyl-4″-(quinuclidin-3-yloxy)-[1,1′:3′,1″-terphenyl]-3-yl)methoxy)benzyl)amino)-3-hydroxy-2-methylpropanoic acid], the AC50 in assay [1] was found to be 76.2 nM. The IC50 in assay [2] is 0.348 nM. For the same molecule, in assay [3], the EC50 was 283 nM.
For `CS(=O)(=O)c1cncc(COc2nc(OCc3cccc(-c4cccc(-c5ccc(OCCNCCO)cc5)c4Cl)c3Cl)c(Cl)cc2CN2C[C@@H](O)C[C@H]2C(=O)O)c1` [Example 303, (2S,4S)-1-((5-chloro-6-((2,2′-dichloro-4″-(2-((2-hydroxyethyl)amino)ethoxy)-[1,1′:3′,1″-terphenyl]-3-yl)methoxy)-2-((5-(methylsulfonyl)pyridin-3-yl)methoxy)pyridin-3-yl)methyl)-4-hydroxypyrrolidine-2-carboxylic acid] the same measures were 101 nM, 0.166 nM and 289 nM.
Turning to `CC(C)(NCc1cc(Cl)c(OCc2cccc(-c3cccc(-c4ccc(OCCNCCO)cc4)c3Cl)c2Cl)nc1OCc1cncc(S(C)(=O)=O)c1)C(=O)O` [Example 304, 2-(((5-chloro-6-((2,2′-dichloro-4″-(2-((2-hydroxyethyl)amino)ethoxy)-[1,1′:3′,1″-terphenyl]-3-yl)methoxy)-2-((5-(methylsulfonyl)pyridin-3-yl)methoxy)pyridin-3-yl)methyl)amino)-2-methylpropanoic acid], the AC50 in assay [1] amounted to 16.5 nM. Also, in assay [2], the IC50 amounted to 0.064 nM. In addition, the EC50 in assay [3] was determined as 79 nM.
For the molecule `Cc1c(COc2nc(OCc3cncc(C#N)c3)c(CN[C@@](C)(CO)C(=O)O)cc2Cl)cccc1-c1cccc(-c2ccc3c(c2)CC[C@@]3(CO)N(C)C)c1C` [Example 305, (S)-2-(((5-chloro-2-((5-cyanopyridin-3-yl)methoxy)-6-((3′-((R)-1-(dimethylamino)-1-(hydroxymethyl)-2,3-dihydro-1H-inden-5-yl)-2,2′-dimethyl-[1,1′-biphenyl]-3-yl)methoxy)pyridin-3-yl)methyl)amino)-3-hydroxy-2-methylpropanoic acid], the AC50 in assay [1] was determined as 150 nM. The half-maximal inhibitory concentration (IC50) in assay [2] worked out at 0.158 nM. Further, the EC50 in assay [3] came to 1770 nM.
`Cc1c(COc2nc(OCc3cncc(C#N)c3)c(CNCCO)cc2Cl)cccc1-c1cccc(-c2ccc(C(O)CN(C)C)cc2)c1C` (stereo not drawn) [Example 306, 5-(((5-chloro-6-((4″-(2-(dimethylamino)-1-hydroxyethyl)-2,2′-dimethyl-[1,1′:3′,1″-terphenyl]-3-yl)methoxy)-3-(((2-hydroxyethyl)amino)methyl)pyridin-2-yl)oxy)methyl)nicotinonitrile]: the AC50 in assay [1] is 292 nM. For the same molecule, the IC50 in assay [2] was found to be 1.97 nM. The EC50 in assay [3] was 547 nM.
